Laboratory results taken from EP2970215B1, “PYRROLIDINE DERIVATIVES, PHARMACEUTICAL COMPOSITIONS CONTAINING THEM, AND THEIR USE IN THERAPY” (AbbVie Deutschland GmbH & Co. KG, priority 2013, dated 2014).

What follows are compounds tested against T1, human GlyT1c transporter (Homo sapiens, UniProt P48067) (assay: Radioligand binding assay using recombinant CHO cell membranes expressing human GlyT1). Conditions: radioligand binding to human GlyT1c transporter-expressing membranes.
T1 construct: expressed in transfected cells; host or cells: CHO cells (recombinant; line hGlyT1c_5_CHO is named for the uptake assay)
T1 sequence (P48067 1-706): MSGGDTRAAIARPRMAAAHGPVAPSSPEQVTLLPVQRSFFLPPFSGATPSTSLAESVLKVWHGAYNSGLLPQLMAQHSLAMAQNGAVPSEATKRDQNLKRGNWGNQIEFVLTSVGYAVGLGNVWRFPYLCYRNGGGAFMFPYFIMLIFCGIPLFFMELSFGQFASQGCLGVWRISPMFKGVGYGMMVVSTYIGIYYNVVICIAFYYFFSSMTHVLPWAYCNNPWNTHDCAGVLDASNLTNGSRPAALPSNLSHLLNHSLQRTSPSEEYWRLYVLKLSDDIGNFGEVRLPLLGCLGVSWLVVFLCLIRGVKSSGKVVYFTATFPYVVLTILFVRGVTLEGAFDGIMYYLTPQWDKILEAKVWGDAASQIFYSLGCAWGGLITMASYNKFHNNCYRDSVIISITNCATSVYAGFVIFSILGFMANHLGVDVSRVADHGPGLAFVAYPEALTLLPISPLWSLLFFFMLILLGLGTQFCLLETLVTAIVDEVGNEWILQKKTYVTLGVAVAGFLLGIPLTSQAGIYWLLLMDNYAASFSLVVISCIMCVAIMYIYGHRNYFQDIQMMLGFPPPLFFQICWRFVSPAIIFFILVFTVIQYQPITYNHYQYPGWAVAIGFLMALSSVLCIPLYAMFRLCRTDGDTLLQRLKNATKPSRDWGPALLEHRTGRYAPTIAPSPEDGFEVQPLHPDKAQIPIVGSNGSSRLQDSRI
Description: 2. Radioligand binding assays using recombinant CHO cell membranes expressing human GlyT1: […]

| Structure (SMILES) | Ki [µM] |
| --- | --- |
| Cn1cnc(S(=O)(=O)N2C[C@@H](Nc3ccc(Cl)c(C(F)(F)F)c3)[C@H](c3ccccc3)C2)c1 (relative stereo) [Example 217, trans-N-[4-chloro-3-(trifluoromethyl)phenyl]-1-[(1-methyl-1H-imidazol-4-yl)sulfonyl]-4-phenylpyrrolidin-3-amine] | ≤ 1 |
| Cn1cnc(S(=O)(=O)N2C[C@@H](Nc3ccc(Cl)c(Cl)c3)[C@H](c3ccccc3)C2)c1 (relative stereo) [Example 218, trans-N-(3,4-dichlorophenyl)-1-[(1-methyl-1H-imidazol-4-yl)sulfonyl]-4-phenylpyrrolidin-3-amine] | ≤ 1 |
| Cn1cnc(S(=O)(=O)N2C[C@@H](Nc3cc(F)c(F)c(Cl)c3)[C@H](c3ccccc3)C2)c1 (relative stereo) [Example 219, trans-N-(3-chloro-4,5-difluorophenyl)-1-[(1-methyl-1H-imidazol-4-yl)sulfonyl]-4-phenylpyrrolidin-3-amine] | ≤ 10 |
| CC(C)c1cccc(N[C@@H]2CN(S(=O)(=O)c3cn(C)cn3)C[C@H]2c2ccccc2)c1 (relative stereo) [Example 220, trans-1-[(1-methyl-1H-imidazol-4-yl)sulfonyl]-4-phenyl-N-[3-(propan-2-yl)phenyl]pyrrolidin-3-amine] | ≤ 0.01 |
| Cn1cnc(S(=O)(=O)N2C[C@@H](Nc3cccc(C(F)(F)F)c3F)[C@H](c3ccccc3)C2)c1 (relative stereo) [Example 222, trans-N-[2-fluoro-3-(trifluoromethyl)phenyl]-1-[(1-methyl-1H-imidazol-4-yl)sulfonyl]-4-phenylpyrrolidin-3-amine] | ≤ 1 |
| Cn1cnc(S(=O)(=O)N2C[C@@H](Nc3cc(F)cc(Cl)c3)[C@H](c3ccccc3)C2)c1 (relative stereo) [Example 225, trans-N-(3-chloro-5-fluorophenyl)-1-[(1-methyl-1H-imidazol-4-yl)sulfonyl]-4-phenylpyrrolidin-3-amine] | ≤ 10 |
| Cn1cnc(S(=O)(=O)N2C[C@@H](Nc3cccc(OC(F)(F)F)c3)[C@H](c3ccccc3)C2)c1 (relative stereo) [Example 226, trans-1-[(1-methyl-1H-imidazol-4-yl)sulfonyl]-4-phenyl-N-[3-(trifluoromethoxy)phenyl]pyrrolidin-3-amine] | ≤ 0.01 |
| Cn1cnc(S(=O)(=O)N2C[C@@H](Nc3ccc4cccnc4c3)[C@H](c3ccccc3)C2)c1 (relative stereo) [Example 228, N-{trans-1-[(1-methyl-1H-imidazol-4-yl)sulfonyl]-4-phenylpyrrolidin-3-yl}quinolin-7-amine] | ≤ 10 |
| Cn1cnc(S(=O)(=O)N2C[C@@H](Nc3ccc4ncccc4c3)[C@H](c3ccccc3)C2)c1 (relative stereo) [Example 229, N-{trans-1-[(1-methyl-1H-imidazol-4-yl)sulfonyl]-4-phenylpyrrolidin-3-yl}quinolin-6-amine] | ≤ 10 |
| Cn1cnc(S(=O)(=O)N2C[C@@H](Nc3cc(F)ccc3F)[C@H](c3ccccc3)C2)c1 (relative stereo) [Example 232, trans-N-(2,5-difluorophenyl)-1-[(1-methyl-1H-imidazol-4-yl)sulfonyl]-4-phenylpyrrolidin-3-amine] | ≤ 10 |
| Cn1cnc(S(=O)(=O)N2C[C@@H](Nc3ccc(F)cc3F)[C@H](c3ccccc3)C2)c1 (relative stereo) [Example 233, trans-N-(2,4-difluorophenyl)-1-[(1-methyl-1H-imidazol-4-yl)sulfonyl]-4-phenylpyrrolidin-3-amine] | ≤ 10 |
| Cn1cnc(S(=O)(=O)N2C[C@@H](Nc3ccc(F)c(F)c3F)[C@H](c3ccccc3)C2)c1 (relative stereo) [Example 234, trans-1-[(1-methyl-1H-imidazol-4-yl)sulfonyl]-4-phenyl-N-(2,3,4-trifluorophenyl)pyrrolidin-3-amine] | ≤ 1 |
| Cn1cnc(S(=O)(=O)N2C[C@@H](Nc3cccc(F)n3)[C@H](c3ccccc3)C2)c1 (relative stereo) [Example 235, 6-fluoro-N-{trans-1-[(1-methyl-1H-imidazol-4-yl)sulfonyl]-4-phenylpyrrolidin-3-yl}pyridin-2-amine] | ≤ 10 |
| Cn1cnc(S(=O)(=O)N2C[C@@H](Nc3ccnc(F)c3)[C@H](c3ccc(F)cc3)C2)c1 (relative stereo) [Example 239, 2-fluoro-N-{trans-4-(4-fluorophenyl)-1-[(1-methyl-1H-imidazol-4-yl)sulfonyl]pyrrolidin-3-yl} pyridin-4-amine] | ≤ 10 |
| Cn1cnc(S(=O)(=O)N2C[C@@H](C(=O)Nc3ccccc3)[C@H](c3ccc(F)cc3)C2)c1 (relative stereo) [Example 242, trans-4-(4-fluorophenyl)-1-[(1-methyl-1H-imidazol-4-yl)sulfonyl]-N-phenylpyrrolidine-3-carboxamide] | ≤ 10 |

The remaining lines, values ahead:

| Ki [µM] | Structure (SMILES) |
| --- | --- |
| ≤ 1 | Cn1cnc(S(=O)(=O)N2C[C@@H](Nc3cccc(C(C)(C)C)c3)[C@H](c3ccccc3)C2)c1 (relative stereo) [Example 221, trans-N-(3-tert-butylphenyl)-1-[(1-methyl-1H-imidazol-4-yl)sulfonyl] -4-phenylpyrrolidin-3-amine] |
| ≤ 0.1 | Cn1cnc(S(=O)(=O)N2C[C@@H](Nc3cc(F)cc(C(F)(F)F)c3)[C@H](c3ccccc3)C2)c1 (relative stereo) [Example 223, trans-N-[3-fluoro-5-(trifluoromethyl)phenyl]-1-[(1-methyl-1H-imidazol-4-yl)sulfonyl]-4-phenylpyrrolidin-3-amine] |
| ≤ 1 | Cn1cnc(S(=O)(=O)N2C[C@@H](Nc3cc(C(F)(F)F)ccc3F)[C@H](c3ccccc3)C2)c1 (relative stereo) [Example 224, trans-N-[2-fluoro-5-(trifluoromethyl)phenyl]-1-[(1-methyl-1H-imidazol-4-yl)sulfonyl]-4-phenylpyrrolidin-3-amine] |
| ≤ 10 | Cn1cnc(S(=O)(=O)N2C[C@@H](Nc3nccc(C(F)(F)F)n3)[C@H](c3ccccc3)C2)c1 (relative stereo) [Example 227, N-{trans-1-[(1-methyl-1H-imidazol-4-yl)sulfonyl]-4-phenylpyrrolidin-3-yl}-4-(trifluoromethyl)pyrimidin-2-amine] |
| ≤ 10 | Cn1cnc(S(=O)(=O)N2C[C@@H](Nc3ccc4cnccc4c3)[C@H](c3ccccc3)C2)c1 (relative stereo) [Example 230, N-{trans-1-[(1-methyl-1H-imidazol-4-yl)sulfonyl]-4-phenylpyrrolidin-3-yl}isoquinolin-6-amine] |
| ≤ 1 | Cn1cnc(S(=O)(=O)N2C[C@@H](Nc3cccc(F)c3F)[C@H](c3ccccc3)C2)c1 (relative stereo) [Example 231, trans-N-(2,3-difluorophenyl)-1-[(1-methyl-1H-imidazol-4-yl)sulfonyl]-4-phenylpyrrolidin-3-amine] |
| ≤ 10 | Cn1cnc(S(=O)(=O)N2C[C@@H](Nc3ccnc(F)c3)[C@H](c3ccccc3)C2)c1 (relative stereo) [Example 236, 2-fluoro-N-{trans-1-[(1-methyl-1H-imidazol-4-yl)sulfonyl]-4-phenylpyrrolidin-3-yl}pyridin-4-amine] |
| ≤ 10 | Cn1cnc(S(=O)(=O)N2C[C@@H](Nc3cncc(F)c3)[C@H](c3ccccc3)C2)c1 (relative stereo) [Example 237, 5-fluoro-N-{trans-1-[(1-methyl-1H-imidazol-4-yl)sulfonyl]-4-phenylpyrrolidin-3-yl}pyridin-3-amine] |
| ≤ 0.1 | Cn1cnc(S(=O)(=O)N2C[C@@H](Nc3cc(C(F)(F)F)ncn3)[C@H](c3ccccc3)C2)c1 (relative stereo) [Example 240, N-{trans-1-[(1-methyl-1H-imidazol-4-yl)sulfonyl]-4-phenylpyrrolidin-3-yl} -6-(trifluoromethyl)pyrimidin-4-amine] |
| ≤ 10 | Cn1cnc(S(=O)(=O)N2C[C@@H](Nc3ccc4ccncc4c3)[C@H](c3ccccc3)C2)c1 (relative stereo) [Example 241, N-{trans-1-[(1-methyl-1H-imidazol-4-yl)sulfonyl]-4-phenylpyrrolidin-3-yl}isoquinolin-7-amine] |
| ≤ 1 | Cn1cnc(S(=O)(=O)N2C[C@@H](C(=O)Nc3ccc(C(F)(F)F)cc3)[C@H](c3ccc(F)cc3)C2)c1 (relative stereo) [Example 243, Trans-4-(4-fluorophenyl)-1-[(1-methyl-1H-imidazol-4-yl)sulfonyl]-N-[4-(trifluoromethyl)phenyl]pyrrolidine-3-carboxamide] |
| ≤ 1 | Cn1cnc(S(=O)(=O)N2C[C@@H](C(=O)Nc3cc(Cl)cc(Cl)c3)[C@H](c3ccc(F)cc3)C2)c1 (relative stereo) [Example 244, Trans-N-(3,5-dichlorophenyl)-4-(4-fluorophenyl)-1-[(1-methyl-1H-imidazol-4-yl)sulfonyl]pyrrolidine-3-carboxamide] |
| ≤ 0.1 | Cn1cnc(S(=O)(=O)N2C[C@@H](COc3ccccc3)[C@H](c3ccc(F)cc3)C2)c1 (relative stereo) [Example 245, 4-{[trans-3-(4-fluorophenyl)-4-(phenoxymethyl)pyrrolidin-1-yl]sulfonyl}-1-methyl-1H-imidazole] |
